Assay results taken from PMC3827197, “Antidiabetic Effects of Chamomile Flowers Extract in Obese Mice through Transcriptional Stimulation of Nutrient Sensors of the Peroxisome Proliferator-Activated Receptor (PPAR) Family” (PLoS ONE, 2013).

Columns and labels:
PPARα = target: T1, PPARα (Homo sapiens, UniProt Q07869); assay: Reporter gene assay of transcriptional activation, PPARα (HEK 293, GAL4-PPAR-LBD); type: cell-based; details: relative to reference compound GW7647
T1 construct: HEK 293 cells were stably expressing a GAL4-PPAR-LBD fusion protein and an UAS-beta-lactamase reporter gene; host or cells: HEK 293
T1 sequence (Q07869 239-466 limits assumed): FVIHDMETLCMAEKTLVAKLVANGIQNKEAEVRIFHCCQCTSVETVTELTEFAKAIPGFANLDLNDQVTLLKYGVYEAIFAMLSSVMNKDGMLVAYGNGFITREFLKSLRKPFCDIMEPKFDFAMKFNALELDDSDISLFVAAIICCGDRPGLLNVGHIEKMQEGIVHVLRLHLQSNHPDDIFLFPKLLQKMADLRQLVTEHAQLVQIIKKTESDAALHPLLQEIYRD
Description: Transcriptional activation of PPARs was assessed in cellular reporter gene assays according to the manufacturer’s protocols (GeneBLAzer PPAR alpha/gamma/delta Assay, Life Technologies). Briefly, HEK 293 cells were stably expressing a GAL4-PPAR-LBD fusion protein and an UAS-beta-lactamase reporter gene. Cells were incubated with different concentrations of compounds resulting in differential expression of the reporter gene. Binding and activation assays were measured with the POLARstar Omega (BMG LABTECH, Offenburg, Germany). Data were fitted using GraphPad Prism 5.0 according equation: Y=Bottom + (Top-Bottom)/(1+10^((LogEC50-X)*HillSlope)) with variable Hill slope.

[1] = tested on: PPARα target genes in HepG2 cells; assay: qPCR gene expression in HepG2 hepatocytes, with PPARα siRNA knockdown; details: 300 µg/ml CFE or 10 µM GW7647, 24 h, vs vehicle
Description: Specificity of PPARα-driven modulation was investigated in siRNA-mediated knockdown in human hepatocytes and subsequent real-time PCR detection. Therefore, HepG2 cells were seeded in 24-well-plates (Nunc) at a density of 40,000 cells per well.

HFD-fed C57BL/6 mice = assay: Therapy study in insulin-resistant obese HFD-fed (DIO) mice; details: CFE 200 mg/kg/d or RGZ 4 mg/kg/d
Description: Animal studies were approved by the State Office of Health and Social Affairs (Berlin, Germany) and were carried out according internationally approved guidelines. All animals were singly housed under temperature-, humidity- and light-controlled conditions (22°C, 50% humidity, 12 h light/12 h dark cycle). Mice had ad libitum access to food and water. Mice, food and water were weighed in a regularly to determine changes in body weight and food and water intake.
For the therapy study, we subjected male 6-week old C57BL/6 mice to an HFD for 18 weeks to induce obesity and insulin resistance. Prior to compound treatment, mice were weighed and distributed uniformly to three groups (n=9-14 each). […] After 2 weeks of treatment mice were subjected to an oral glucose tolerance test (OGTT). […]
Mice were fasted overnight before being subjected to an oral glucose (Sigma-Aldrich) dose of 2 g/kg body weight. Blood was taken from the tail vein at the indicated time points and blood glucose was analysed in a Hemocue B-Glucose analyser (Hemocue, Großostheim, Germany). […]
Whole blood glucose was analysed in a Hemocue B-Glucose analyser. Plasma glucose was measured using the Amplex Red Glucose Assay Kit (Life Technologies). Plasma triacylglycerol, NEFA, HDL and LDL/VLDL cholesterol and plasma alanine transaminase (ALT) were determined with colorimetric quantification kits (Biovision, Milpitas, CA, USA). […]

SMILES | Efficacy PPARα (PPARα) [%] | Expression of PPARα target genes (ACOX2, CPT 2, ECH1, HMGCS2) [1] | Gene expression of inflammatory markers in WAT (HFD-fed C57BL/6 mice; 6 weeks, qPCR) | HOMA-IR insulin resistance, decrease (HFD-fed C57BL/6 mice; after 2 weeks) [%]
CC(C)(Sc1ccc(CCN(CCCCC2CCCCC2)C(=O)NC2CCCCC2)cc1)C(=O)O [GW7647] | 100 | significantly induced expression | – | –
CN(CCOc1ccc(CC2SC(=O)NC2=O)cc1)c1ccccn1 (stereo not shown) [RGZ, rosiglitazone] | – | – | remained largely unchanged | 67
